What was measured:
[1] = test system: fluorescent protein-based NAD^+ biosensor (fluorescent core domain and bipartite NAD^+ binding domain); test: NAD^+ detection with fluorescent protein biosensor in microdroplets (fluorescence quenching by NAD^+ binding); type: biochemical; details: 1 mM of NAD^+, excitation at 488 nm, emission at 520 nm
Description: In some embodiments, the detection reagent comprises a biosensor, such as a protein biosensor, as one non-limiting example of a biosensor. The biosensor may be configured to react with the cofactor (or a redox couple of the cofactor) to generate (or quench) a luminescent signal. The generation (or quenching) of the luminescent signal may be used to detect, screen, and/or isolate droplets containing the target enzyme. In one example, the protein biosensor comprises a fluorescent core domain and a bipartite NAD+ and/or NADP+ binding domain. The fluorescent core domain has an excitation at 488 nm and an emission at 520 nm. In the presence of NAD+ and/or NADP+, the fluorescence from the core domain is quenched by binding of the NAD+ and/or NADP+ to the bipartite binding domain.
A fluorescent protein-based NAD^+ biosensor was developed for quantitative detection of NAD^+. […] In this setup, the fluorescence from the core domain was quenched by NAD^+ binding corresponding to the concentration of the bound NAD^+ (FIG. 12A). The biosensor fluorescence intensity and NAD^+ concentration were negatively correlated in the range of 1 to 1000 μM of NAD^+. […] A nearly-linear correlation between the biosensor fluorescence intensity and NAD^+ concentration was shown at range of 50 μM to 1000 μM of NAD^+.

[2] = test system: thiolated DBC1 protein (deleted in breast cancer 1), NAD^+ binding domain linked to CdSe/CdS/CdZnS/ZnS quantum dot; test: NAD^+ detection with quantum dot sensor linked to thiolated DBC1 protein (fluorescence quenching); type: biochemical; details: for reduction of fluorescence signal of the sensor: 1.5 μM of sensor, in microfluidics (droplets)
Procedure: (4) Preparation of thiolated DBC1 protein (deleted in breast cancer 1). DBC1 protein was prepared by treated protein with 2-iminothiolane to introduce sulfhydryl residues onto a sulfydril:protein ratio of ˜20. Five mg of DBC1 dissolved in 1 mL of PBS (pH 7.4) was allowed to react with 2 mg of 2-iminothilane.HCl and kept at 4° C. for 2 h with vortex. The resulting solution was filtered through a size-exclusion centrifugal filter device (Micron YM-30, Millipore).
(5) Preparation of DBC1 protein coated QDs. The MPA capped QDs were incubated with thiolated DBC1 protein in HEPES buffer (pH 7.4) for 5 days at 4° C.
Another example for NAD^+ sensing was developed with a quantum dot fluorescence sensor through FRET effect (FIG. 13A). The highly fluorescent CdSe quantum dot core was coated with 3-mercaptopropionic acid and linked to a NAD^+ binding domain (thiolated DBC1 protein sensor). The protein sensor was reported to specifically bind NAD^+. When such binding occurs, the fluorescence of quantum dot was effectively quenched (FIG. 13B). Consequently, the fluorescence signal of the quantum dot sensor was negatively correlated to NAD+ concentration. This allowed accurate determination of NAD^+ based on the change of fluorescence signal.
The performance of the quantum dot NAD^+ sensor was explored. The quantitative NAD^+ quenching was further examined and validated with an excitation at 538 nm and the fluorescence emission is detected at 595 nm. As concentration of NAD^+ increased, the fluorescence of the sensor was quenched at a very low NAD^+ concentration. The sensor enabled the detection of NAD^+ with a detection limit of 30 μM with a sensor concentration of 1.5 μM with a fixed incubation time of 20 minutes. When the NAD^+ concentration reached 250 μM and above, more than 90% fluorescence signal is quenched. […]
For the NAD^+ detection in microfluidics, the fluorescence of 1.5 μM of sensor was examined with different concentration of NAD^+. The fluorescence signal of the sensor reduced ˜25% when incubated with 200 μM NAD^+, and reduced 45% in the presence of 250 μM NAD^+ (FIG. 14A). […]

NC(=O)c1ccc[n+]([C@@H]2O[C@H](COP(=O)([O-])OP(=O)(O)OC[C@H]3O[C@@H](n4cnc5c(N)ncnc54)[C@H](O)[C@@H]3O)[C@@H](O)[C@H]2O)c1 [NAD^+, nicotinamide adenine dinucleotide] was tested, and the “lower fluorescence signal (quenching by NAD^+)” value [1] was 21%, the “reduction of fluorescence signal of the sensor” value ([2]; 200 μM NAD^+) was about 25% and the “reduction of fluorescence signal of the sensor” value ([2]; 250 μM NAD^+) was 45%. The fluorescence signal quenched ([2]; NAD^+ 250 μM and above, sensor 1.5 μM, incubation 20 minutes, excitation at 538 nm, emission at 595 nm) was “more than 90%”.

Reference: US20210318315A1, “ULTRA-HIGH-THROUGHPUT MICROFLUIDIC ENZYME SCREENING PLATFORM FOR ENZYME DEVELOPMENT” (National University of Singapore, priority 2020, published 2021)
